This note sets out measurements from patent US20260176289A1, “SMALL MOLECULE INHIBITORS OF KRAS PROTEINS” (Merck Sharp & Dohme LLC, priority 2022, published 2026).

For test [1], the target named is KRAS-G12D (Homo sapiens, UniProt P01116, G12D). As to the kind of experiment: SOS-catalyzed nucleotide exchange assay (Procedure A, TR-FRET), KRAS-G12D. It counts as biochemical. To be noted: nucleotide exchange, read-out: KRAS G12D GNE IC50. Put shortly:
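Signal ratio (520/495 nm, excitation 340 nm) reports Bodipy-GDP retention on biotinylated RAS after SOS-catalyzed exchange with 3 mM GTP. SOS was 40 nM, except 160 nM for G12V. Room-temperature exchange lasted 60 min (90 min for G12V), following a 60 min compound preincubation.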

For test [2], the system named is AsPC-1 cells. The experiment in a line: Cellular phospho-ERK assay, AsPC-1 cells (homozygous KRAS-G12D). The class given is cell-based. To be noted: Homo sapiens, ASPC1, 2 h, read-out: AsPC1 pERK IC50. The method, boiled down: (§1)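 Overnight-plated cells on collagen received test compound (up to 30 μM final, threefold steps, ten concentrations) for two hours. After lysis at room temperature, phosphorylated and total ERK were quantified together by Alpha SureFire, and IC50 is based on the phospho-to-total signal ratio.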

Test [3] has as its system MKN-1 cells. As to the kind of experiment: Cellular phospho-ERK assay, MKN-1 cells (amplified wild-type KRAS). The class given is cell-based. The settings on record: Homo sapiens, read-out: MKN1 pERK IC50. Put shortly: as §1
Test [4] deals with KRAS-WT (Homo sapiens, UniProt P01116). The experiment in a line: SOS-catalyzed nucleotide exchange assay (Procedure A, TR-FRET), KRAS-WT. The class given is biochemical. To be noted: nucleotide exchange, read-out: KRAS WT GNE IC50. The method, boiled down:
(§2)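 Biotinylated RAS (KRAS-G12C carries C51S/C80L/C118S; others WT background) preloaded with Bodipy-GDP plus Tb-streptavidin, preincubated with compound 60 min at RT, then human SOS and 3 mM GTP added. Final RAS/SOS: G12C 3 nM/40 nM, 60 min; WT 1 nM/40 nM, 60 min; G12V 1.25 nM/160 nM, 90 min; NRAS 1.25 nM/40 nM, 60 min. TR-FRET 520/495 ratio normalized to DMSO and saturating inhibitor; 10-point curves fit four-parameter logistic.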

The target of test [5] is KRAS-G12C (C51S/C80L/C118S) (Homo sapiens, UniProt P01116, C118S/C51S/C80L/G12C). The experiment in a line: SOS-catalyzed nucleotide exchange assay (Procedure A, TR-FRET), KRAS-G12C. The class given is biochemical. The settings on record: nucleotide exchange, Procedure A; read-out: KRAS G12C GNE IC50. Put shortly: as §2
Chain of KRAS-G12C (C51S/C80L/C118S) (P01116 with tags, fused parts or gaps isoform P01116-2 G12C/C51S/C80L/C118S): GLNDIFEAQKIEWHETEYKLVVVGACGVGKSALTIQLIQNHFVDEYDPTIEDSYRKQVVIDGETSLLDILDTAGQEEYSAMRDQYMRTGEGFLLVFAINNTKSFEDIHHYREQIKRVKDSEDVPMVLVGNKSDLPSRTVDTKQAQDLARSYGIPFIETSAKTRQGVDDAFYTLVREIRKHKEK
In general terms: Time-resolved FRET reads energy transfer from a long-lived donor to a nearby acceptor.

The subject of test [6] is SW620 cells. The experiment in a line: Cellular phospho-ERK assay, SW620 cells (homozygous KRAS-G12V). The class given is cell-based. To be noted: Homo sapiens, read-out: SW620 pERK IC50. Put shortly: as §1
The target of test [7] is KRAS-G13D (Homo sapiens, UniProt P01116, G13D). The experiment in a line: SOS-catalyzed nucleotide exchange assay (Procedure A, TR-FRET), KRAS-G13D. It counts as biochemical. To be noted: nucleotide exchange, Procedure A; read-out: KRAS G13D GNE IC50.
Chain of KRAS-G13D (P01116 with tags, fused parts or gaps isoform P01116-2 G13D): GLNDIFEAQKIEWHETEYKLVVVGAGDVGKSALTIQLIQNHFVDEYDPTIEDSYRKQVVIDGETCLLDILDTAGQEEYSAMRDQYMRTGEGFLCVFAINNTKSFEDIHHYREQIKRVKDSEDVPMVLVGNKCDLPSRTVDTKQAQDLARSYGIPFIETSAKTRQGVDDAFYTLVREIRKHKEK
Test [8] addresses KRAS-G12V (Homo sapiens, UniProt P01116, G12V). As to the kind of experiment: SOS-catalyzed nucleotide exchange assay (Procedure A, TR-FRET), KRAS-G12V. It counts as biochemical. To be noted: nucleotide exchange, read-out: KRAS G12V GNE IC50. Put shortly: as §2
Where [9] appears, read: SW-620, 2 hours compound incubation.

Read-outs that look alike come from different tables or passages of the source.

Chain of KRAS-G12V (P01116 with tags, fused parts or gaps isoform P01116-2 G12V): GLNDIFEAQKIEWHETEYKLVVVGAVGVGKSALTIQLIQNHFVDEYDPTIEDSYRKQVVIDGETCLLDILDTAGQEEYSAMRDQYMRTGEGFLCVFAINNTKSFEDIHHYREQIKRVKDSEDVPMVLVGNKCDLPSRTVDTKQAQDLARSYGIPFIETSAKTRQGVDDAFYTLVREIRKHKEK
Chain of KRAS-G12D (P01116 with tags, fused parts or gaps isoform P01116-2 G12D): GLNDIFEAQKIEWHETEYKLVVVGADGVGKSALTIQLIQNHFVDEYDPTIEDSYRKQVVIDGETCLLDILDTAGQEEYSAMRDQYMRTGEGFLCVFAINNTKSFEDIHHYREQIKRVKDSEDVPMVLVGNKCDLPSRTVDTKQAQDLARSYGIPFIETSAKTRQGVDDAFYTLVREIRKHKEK
Chain of KRAS-WT (P01116 with tags, fused parts or gaps isoform P01116-2): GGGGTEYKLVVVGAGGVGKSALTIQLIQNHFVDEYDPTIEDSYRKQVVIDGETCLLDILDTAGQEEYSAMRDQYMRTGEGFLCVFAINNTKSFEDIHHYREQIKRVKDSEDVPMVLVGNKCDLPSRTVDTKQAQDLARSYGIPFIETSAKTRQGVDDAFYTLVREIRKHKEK

What is called IC50 is the concentration needed to halve the response being measured. Turning to `CC[C@@H]1CCCc2cc3[nH]ncc3c(-c3nccc4c3sc3nc(OC[C@@]56CCCN5C[C@H](F)C6)nc(N5CCOC[C@@](C)(O)C5)c34)c21` [Ex-176], the IC50 in test [1] is 6.22 nM; in test [2] (2 hours compound incubation), 51.9 nM; in test [3] (2 hours compound incubation), 44.8 nM; in test [4], 19.8 nM; in test [5], 10.5 nM; in test [6] (setting [9]), 22.7 nM. For the same compound, the concentration for half-maximal inhibition (IC50) turned out to be 12.5 nM in test [7] and 11.6 nM in test [8].
Consider `C[C@@]1(O)COCCN(c2nc(OC[C@@]34CCCN3C/C(=C\F)C4)nc3sc4c(-c5c(C6CC6)c(Cl)cc6[nH]ncc56)nccc4c23)C1` [Ex-208, (6S)-4-(8-(6-chloro-5-cyclopropyl-1H-indazol-4-yl)-2-(((S,Z)-2-(fluoromethylene)tetrahydro-1H-pyrrolizin-7a(5H)-yl)methoxy)pyrido[4′,3′:4,5]thieno[2,3-d]pyrimidin-4-yl)-6-methyl-1,4-oxazepan-6-ol], for which the half-maximal inhibitory concentration (IC50) was determined as 2.44 nM in test [1]; 20.4 nM in test [2] (2 hours compound incubation); 63.6 nM in test [3] (2 hours compound incubation); 5.79 nM in test [4]; 44.5 nM in test [5]; 17 nM in test [6] (setting [9]). Moreover, the IC50 in test [7] was 20.2 nM; in test [8], 11.1 nM.
Turning to `[2H]C1([2H])CC[C@]2(COc3nc(N4CCOC[C@@](C)(O)C4)c4c(n3)sc3c(-c5c(C6CC6)c(Cl)cc6[nH]ncc56)nccc34)N1C[C@H](F)C2([2H])[2H]` [Ex-210, (6S)-4-(8-(6-chloro-5-cyclopropyl-1H-indazol-4-yl)-2-(((2R,7aS)-2-fluoro-tetrahydro-1H-pyrrolizin-7a(5H)-yl-1,1,5,5-d4)meth-oxy)pyrido[4′,3′: 4,5]thieno[2,3-d]pyrimidin-4-yl)-6-methyl-1,4-oxaze-pan-6-ol], the 50% inhibitory concentration (IC50) is 4.71 nM in test [1]; 35 nM in test [2] (2 hours compound incubation); 20.1 nM in test [3] (2 hours compound incubation); 12.2 nM in test [4]; 13.4 nM in test [5]; 12.3 nM in test [6] (setting [9]). For the same compound, the values for the concentration for half-maximal inhibition (IC50) in test [7] and in test [8] were 12.7 nM and 14.1 nM, respectively.
For the compound `CN1CCC[C@H]1COc1nc(N2CCOC[C@@](C)(O)C2)c2c(n1)sc1c(-c3c(C4CC4)c(C(F)(F)F)cc4[nH]ncc34)nccc12` [Ex-79, (6S)-4-(8-(5-cyclopropyl-6-(trifluoromethyl)-1H-indazol-4-yl)-2-(((S)-1-methylpyrrolidin-2-yl)methoxy)pyrido[4′,3′:4.5]thi-eno[2,3-d]pyrimidin-4-yl)-6-methyl-1,4-oxazepan-6-ol], the IC50 was 5.84 nM in test [1]; 23.2 nM in test [2] (KRAS-G12D, 2 hours); 16.2 nM in test [3] (amplified wild-type KRAS, 2 hours); 8.2 nM in test [4]; 57.9 nM in test [5]; 8.94 nM in test [6] (SW-620, KRAS-G12V, 2 hours). The IC50 in test [7] was determined as 27.9 nM; in test [8] it was 10.8 nM.
As for `C=C(C)c1c(Cl)cc2[nH]ncc2c1-c1nccc2c1sc1nc(OC[C@@]34CCCN3C[C@H](F)C4)nc(N3CCOC[C@@](C)(O)C3)c12` [Ex-142, (6S)-4-(8-(6-chloro-5-(prop-1-en-2-yl)-1H-indazol-4-yl)-2-(((2R,7aS)-2-fluoro-tetrahydro-1H-pyr-rolizin-7a(5H)-yl)-methoxy)pyrido [4′,3′:4,5]thieno[2,3-d]pyrimidin-4-yl)-6-methyl-1,4-oxaze-pan-6-ol], the half-inhibitory concentration (IC50) in test [1] is 19.2 nM; in test [2] (2 hours compound incubation), 82.1 nM; in test [3] (2 hours compound incubation) it was 120 nM; in test [4] it was 49.2 nM; in test [5], 34 nM; in test [6] (setting [9]) it was 96.7 nM. Further, the IC50 came out at 31.1 nM in test [7] and 29.3 nM in test [8].
